≈ marks a conversion by molar mass, not a printed value.
What was measured:
[1] = target: Acetylcholinesterase (Homo sapiens) (UniProt P22303); experiment: Inhibition of AChE assessed as white zone of inhibition after 20 mins by TLC bioautography
Pseudomonas aeruginosa = experiment: Antimicrobial activity against Pseudomonas aeruginosa ATCC 27853 after 24 hrs by broth dilution technique; format: functional
Staphylococcus aureus = experiment: Antimicrobial activity against Staphylococcus aureus ATCC 25923 after 24 hrs by broth dilution technique; format: functional
Candida albicans = experiment: Antimicrobial activity against Candida albicans ATCC 90028 after 24 hrs by broth dilution technique; format: functional; details: ATCC 90028, 24 h
[2] = Pseudomonas aeruginosa, ATCC 27853, 24 h, read-out: MIC

Chain of Acetylcholinesterase (Homo sapiens) (P22303 whole entry): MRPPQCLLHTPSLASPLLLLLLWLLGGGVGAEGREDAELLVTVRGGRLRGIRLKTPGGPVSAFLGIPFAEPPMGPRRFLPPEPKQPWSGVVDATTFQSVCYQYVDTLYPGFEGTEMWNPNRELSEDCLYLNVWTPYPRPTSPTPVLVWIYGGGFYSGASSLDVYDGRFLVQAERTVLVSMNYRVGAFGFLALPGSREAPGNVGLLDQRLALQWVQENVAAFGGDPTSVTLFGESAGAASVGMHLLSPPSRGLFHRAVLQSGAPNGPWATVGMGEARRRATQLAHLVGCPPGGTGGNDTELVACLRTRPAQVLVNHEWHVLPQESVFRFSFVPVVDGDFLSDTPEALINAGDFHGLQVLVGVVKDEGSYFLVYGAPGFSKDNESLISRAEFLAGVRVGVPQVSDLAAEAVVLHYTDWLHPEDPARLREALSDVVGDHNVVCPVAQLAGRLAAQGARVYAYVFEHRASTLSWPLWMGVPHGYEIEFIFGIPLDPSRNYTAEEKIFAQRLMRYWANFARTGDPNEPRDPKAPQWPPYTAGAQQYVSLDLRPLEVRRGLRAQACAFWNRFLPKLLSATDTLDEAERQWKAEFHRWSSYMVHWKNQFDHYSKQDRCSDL

Molecule	MIC [1]	MIC (Pseudomonas aeruginosa; [2])	MIC (Staphylococcus aureus; ATCC 25923, 24 h)	MIC (Candida albicans)	other results
COC1=C(C)C(=O)O/C1=C1\O[C@@]23O[C@H]4C[C@@H]([C@H]2[C@@H]1C)N1CC[C@H]3[C@@]41/C=C/C(C)O (mixture of isomers; 2) [listing 1 of 2 here]	2.5 ×10⁻¹ nmol	–	–	–	–
COC1=C(C)C(=O)O/C1=C1\O[C@@]23O[C@H]4C[C@@H]([C@H]2[C@@H]1C)N1CC[C@H]3[C@@]41CC[C@@H](C)O (mixture of isomers)	2.5 ×10⁻¹ nmol	62.5 µg/mL	≥ 125 µg/mL	≥ 125 µg/mL	–
COC1=C(C)C(=O)O/C1=C1\O[C@@]23O[C@H]4C[C@@H]([C@H]2[C@@H]1C)N1CC[C@H]3[C@@]41CCC(C)O (mixture of isomers)	2.5 ×10⁻² nmol	≥ 125 µg/mL	≥ 125 µg/mL	≥ 125 µg/mL	–
C[C@@H]1[C@H](O)[C@@H](C)/C=C/C=C/C=C/C=C/C=C/C=C/C=C/[C@H](O[C@@H]2O[C@H](C)[C@@H](O)[C@H](N)[C@@H]2O)C[C@@H]2O[C@](O)(C[C@@H](O)C[C@@H](O)[C@H](O)CC[C@@H](O)C[C@@H](O)CC(=O)O[C@H]1C)C[C@H](O)[C@H]2C(=O)O [AMPHOTERICIN B]	–	–	–	0.35 µg/mL (≈ 0.379 µM)	–
COC1=C(C)C(=O)O/C1=C1\O[C@@]23O[C@H]4C[C@@H]([C@H]2[C@@H]1C)N1CC[C@H]3[C@@]41C (stereo in doubt; 15) [METHYLSTEMOFOLINE]	–	≥ 125 µg/mL	≥ 125 µg/mL	≥ 125 µg/mL	–
COC1=C(C)C(=O)O/C1=C1\O[C@@]23O[C@H]4C[C@@H]([C@H]2[C@@H]1C)N1CC[C@H]3[C@@]41C (stereo in doubt; 3)	2.9 ×10⁻¹ nmol	–	–	–	–
COC1=C(C)C(=O)O/C1=C1\O[C@@]23O[C@H]4C[C@@H]([C@H]2[C@@H]1C)N1CC[C@H]3[C@@]41/C=C/C(C)O (mixture of isomers; 2) [listing 2 of 2 here]	–	–	–	–	MIC (Pseudomonas aeruginosa): >=125 ug ml-1
GENTAMICIN	–	–	–	–	MIC (Pseudomonas aeruginosa): 1.41 µg/mL; MIC (Staphylococcus aureus): 1.41 µg/mL
COC1=C(C)C(=O)O/C1=C1\O[C@@]23O[C@H]4C[C@@H]([C@H]2[C@@H]1C)N1CC[C@H]3[C@@]41/C=C/C(C)O (mixture of isomers; 1)	–	62.5 µg/mL	≥ 125 µg/mL	≥ 125 µg/mL	–
CC/C=C/C12C3CC4C5[C@@H](C)/C(=C6/OC(=O)C(C)=C6OC)O[C@]5(O3)C1CCN42 (stereo partly drawn)	1.3 ×10⁻² nmol	≥ 125 µg/mL	–	–	–
CNC(=O)Oc1ccc2c(c1)[C@]1(C)CCN(C)[C@@H]1N2C	3.6 ×10⁻⁴ nmol	–	–	–	–

Reference: ChEMBL document CHEMBL1151824, “Semisynthesis and biological activity of stemofoline alkaloids” (2009)
